The target of series [1] is Cdk2/Cyclin A (Homo sapiens, UniProt P24941). Nature of the series: CDK2 inhibition assay. The class given is biochemical.
In series [2] the test system is P3 mouse cochlear explants. Briefly: Cochlear explant cultures treated with cisplatin, outer hair cell counts. The conditions noted are these: for Protection at higher doses in explants treated with cisplatin: dose-response.
Series [3] concerns outer hair cells, 32-kHz region of the organ of Corti. Briefly: Morphologic analysis and OHC counts of cochleae from cisplatin-treated mice. The class given is in vivo, mouse.
The subject of series [4] is cisplatin-induced ototoxicity in adult FVB mice. The class given is in vivo, mouse. The conditions noted are these: 50 μM transtympanic.
Series [5] relates to adult FVB mice. Nature of the series: Toxicity of compound alone delivered transtympanically. The conditions noted are these: 2, 10 or 50 μM, single transtympanic injection, 15 days after injection.
For series [6] the following is noted: weekly dosing schedule, phase I study; cited from earlier work.
Series [7] relates to cisplatin-induced ototoxicity in adult FVB mice. The conditions noted are these: earlier study of the authors; cited from earlier work.

Like-named read-outs stand apart in the source and are kept apart here.

In general, IC50 refers to the point on the concentration scale where inhibition reaches its midpoint. High values mean lower potency, low ones higher potency. One may read the EC50 as the concentration that produces a half-maximal response.

Turning to `O=C(NC1CCN(C(=O)c2c(Cl)cccc2Cl)CC1)c1n[nH]cc1NC(=O)c1c(Cl)cccc1Cl` [analog 14], the IC50 in series [1] turned out to be 760 nM.
As for AZD1080, in series [2] (read-out: Explant EC50, estimated EC50 based on 2–3 tested dose concentrations, cisplatin 150 μM), the concentration for a half-maximal effect (EC50) was 15 µM.
`O=C(N[C@H]1CC[C@H](O)CC1)c1n[nH]cc1NC(=O)c1c(F)cccc1F` [analog 7]: the “OHC loss in middle basal turn (32-kHz region) vs cisplatin alone” value in series [3] (50 μM transtympanic 1 h before cisplatin) is “Substantially less OHC loss”. In addition, the “Overall protection against cisplatin-induced ototoxicity in mice” value (shortened to “Overall protection”) in series [4] was “some—but not complete—protection”. The “Toxicity in the ears of mice in the absence of cisplatin” value in series [5] is “nontoxic”. In addition, the “Protection against cisplatin toxicity in cochlear explants” value in series [2] (compound 150 nM, P3 mouse explants, OHC counts) was “significant protection”. The “Protection at higher doses in explants treated with cisplatin” value in series [2] is reported as “maintains the level of protection at higher doses”.
Take `Cc1ncc(-c2ccnc(Nc3ccc(S(C)(=O)=O)cc3)n2)n1C(C)C` [AZD5438]: in series [3] (50 μM transtympanic 1 h before and 24 h after cisplatin), the “OHC loss in the 32-kHz region” value is “virtually no OHC loss”. Moreover, the “Overall protection” value in series [4] is “fully protective”. The “Safety and tolerability in patients” value in series [6] is “safe and well tolerated”.
As to `O=C1Cc2c([nH]c3ccc(Br)cc23)-c2ccccc2N1` [Kenpaullone], in series [7], the “Overall protection” value is recorded as “complete protection”.
With `O=C(NC1CCNCC1)c1n[nH]cc1NC(=O)c1c(Cl)cccc1Cl` [AT7519, N-(4-piperidinyl)-4-(2,6-dichlorobenzoylamino)-1H-pyrazole-3-carboxamide], the “Protection in cochlear explant cultures treated with cisplatin” value in series [2] (compound 25 nM, cisplatin 150 μM) is on record as “excellent protection”. Moreover, the “Protection at higher doses in explants treated with cisplatin” value in series [2] is reported as “loss of activity was observed at higher doses”.

The values above are taken from publication PMC6443376 (Journal of medicinal chemistry, 2018).
